Holding throughout (format): binding
Assay [1] has as its target MDM2 SWIB domain, Maylandia zebra. The assay can be described thus: Fluorescence polarization displacement assay. To be noted: for IC50 / Ki: M.zeb MDM2 2000 nM. In general terms: Fluorescence polarisation rises when a labelled molecule tumbles more slowly, as on binding a larger partner.
Assay [2] has as its target MDM2 SWIB domain, Takifugu rubripes. The assay is described as follows: Fluorescence polarization displacement assay. To be noted: for IC50 / Ki: T.rub MDM2 1500 nM.
Assay [3] addresses T1, MDM2H.sapiens SWIB domain (Homo sapiens, UniProt Q00987).
T1 construct: NusA-TEV-His6-PreScission (N, cleaved yes); made in house; host or cells: Escherichia coli BL21 (DE3)
The assay is described as follows: Fluorescence polarization displacement assay.

The target in another assay is T2, MDM2D.rerio SWIB domain (Danio rerio, UniProt O42354).
T2 construct: NusA-TEV-His6-PreScission (N, cleaved yes); made in house; host or cells: Escherichia coli BL21 (DE3)
T2 sequence (O42354 with tags, fused parts or gaps): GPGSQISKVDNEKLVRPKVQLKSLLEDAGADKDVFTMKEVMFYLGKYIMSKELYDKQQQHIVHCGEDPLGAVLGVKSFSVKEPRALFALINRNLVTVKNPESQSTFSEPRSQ
The assay is described as follows: Fluorescence polarization displacement assay.

The target in assay [4] is MDM2 SWIB domain, Lepisosteus oculatus. The assay can be described thus: Fluorescence polarization displacement assay.
The target in assay [5] is MDM2 SWIB domain, Channa argus. The assay is described as follows: Fluorescence polarization displacement assay. To be noted: for IC50 / Ki: C.arg MDM2 1500 nM.
Another assay concerns the target T3, D. rerio MDM2 (Danio rerio, UniProt O42354).
T3 construct: NusA-TEV-His6-PreScission site (N, cleaved yes); made in house; host or cells: Escherichia coli BL21 (DE3)
T3 sequence (O42354 with tags, fused parts or gaps): T2 sequence (O42354 with tags, fused parts or gaps)
The assay is described as follows: Isothermal titration calorimetry. To be noted: 25 °C; for TΔS / ΔH / Kd: ITC. The procedure:
For ITC experiments, a MicroCal iTC200 instrument (GE Healthcare) was used, and the experiments were performed at 25 °C. The MDM2 protein and p53TAD peptides were dialyzed against the experimental buffer prior to experiments to avoid buffer mismatch. The concentration of D. rerio MDM2 in the cell was 11 μM and the concentration of p53TADD.rerio^17–32 and p53TADD.rerio^10–75 in the syringe was 118 and 116 μM, respectively. Results were analyzed using the built-in software and a 2-state binding model was assumed.

The mark [6] stands for this setting: labeled probe 15 nM, replicate 1, read-out: IC50 [M] (IT).
Setting [7] is: labeled probe 15 nM, replicate 3, read-out: IC50 [M] (IT).
Setting [8] is: average of the replicates, probe 15 nM, Kd for probe […], read-out: Ki [nM] Average.
Setting [9] is: average of the replicates, probe 15 nM, Kd for probe […], read-out: Ki [µM] Average.
[10] abbreviates: calculated from IC50, Kd for probe […], probe 15 nM, replicate 1, read-out: Ki.
[11] abbreviates: calculated from IC50, Kd for probe […], probe 15 nM, replicate 2, read-out: Ki.
[12] abbreviates: calculated from IC50, Kd for probe […], probe 15 nM, replicate 3, read-out: Ki.
Where [13] appears, read: mean of the replicates, probe 15 nM, read-out: IC50 [nM], mean of the replicates.
Where [14] appears, read: labeled probe 15 nM, replicate 2, read-out: IC50.

“And” between values parts separate entries of the source, which are not always exact repeats. Equal values may be shown once. Read-outs that look alike come from different tables or passages of the source. Where no end group is shown, it is not given here.

MDM2 SWIB domain, Channa argus, sequence (as listed by the source): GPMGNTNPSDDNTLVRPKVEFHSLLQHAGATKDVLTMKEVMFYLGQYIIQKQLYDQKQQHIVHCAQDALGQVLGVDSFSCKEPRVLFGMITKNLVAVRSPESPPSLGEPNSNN
MDM2 SWIB domain, Lepisosteus oculatus, sequence (as listed by the source): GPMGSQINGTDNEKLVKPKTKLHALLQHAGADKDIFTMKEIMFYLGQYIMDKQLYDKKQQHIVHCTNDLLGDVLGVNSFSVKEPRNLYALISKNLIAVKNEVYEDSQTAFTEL
MDM2 SWIB domain, Takifugu rubripes, sequence (as listed by the source): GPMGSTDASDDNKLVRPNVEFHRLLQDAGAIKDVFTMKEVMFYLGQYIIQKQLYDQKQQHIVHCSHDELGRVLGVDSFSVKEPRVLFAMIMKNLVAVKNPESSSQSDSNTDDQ
MDM2 SWIB domain, Maylandia zebra, sequence (as listed by the source): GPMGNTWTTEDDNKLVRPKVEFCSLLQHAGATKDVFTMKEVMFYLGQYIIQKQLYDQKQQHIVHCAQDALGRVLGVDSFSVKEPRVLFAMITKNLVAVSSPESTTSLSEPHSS
T1 sequence (Q00987 with tags, fused parts or gaps): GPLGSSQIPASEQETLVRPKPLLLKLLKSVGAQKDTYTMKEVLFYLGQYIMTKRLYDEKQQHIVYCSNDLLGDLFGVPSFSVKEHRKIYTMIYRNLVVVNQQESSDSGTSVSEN

“GPMGMAEQGFEDLQLSQNLPFSQDSFKELWDQLPVAESLSVSLDTISAVNSSTTGHDETWRPDGTMDMFQLINDQQLAEHFDEKLFELPNDALPKDGVTPPAST [M.zeb p53 P1 full, expressed full-length zebra mbuna p53TAD paralog 1]”: the Kd in assay [1] (FP displacement of FITC-p53TADhuman^15–26 (15 nM) from MDM2 (2 μM), KD from IC50, 20 mM sodium phosphate pH 7.4, 150 mM NaCl, 1 mM TCEP) came to 190 ± 20 nM. For the same substance, the IC50 in assay [1] (setting [6]) stood at 3.27e-06 M; in assay [1] (labeled probe 15 nM, replicate 2, read-out: IC50 [M] (IT)), 3.18e-06 M; in assay [1] (setting [7]), 2.72e-06 M; in assay [1] (setting [13]), 3.06e-06 M. Further, the Ki in assay [1] (setting [8]) was 188 nM; in assay [1] (setting [9]), 190 nM; in assay [1] (setting [10]), 218 nM; in assay [1] (setting [11]) it was 206 nM; in assay [1] (setting [12]), 140 nM.

“GPMGMEDEGFSLPLSQDTFQDLWENVAAPSIVTIPTTSLENEQWHQELLMNYPELPFNEELFNLPSEMASKDSANLSTPT [T.rub p53 P1 full, expressed full-length Japanese puffer p53TAD paralog 1]” gave a Kd in assay [2] (FP displacement of FITC-p53TADhuman^15–26 (15 nM) from MDM2, KD from IC50, 20 mM sodium phosphate pH 7.4, 150 mM NaCl, 1 mM TCEP) of 470 ± 30 nM. The IC50 in assay [2] (setting [6]) was 4.93e-06 M; in assay [2] (setting [14]), 4.16e-06 M; in assay [2] (setting [7]), 4.19e-06 M; in assay [2] (labeled probe 15 nM, replicate 4, read-out: IC50 [M] (IT)), 3.43e-06 M; in assay [2] (labeled probe 15 nM, replicate 5, read-out: IC50 [M] (IT)), 4.05e-06 M; in assay [2] (labeled probe 15 nM, replicate 6, read-out: IC50 [M] (IT)), 4.53e-06 M. The IC50 in assay [2] (setting [13]) was determined as 4.21e-06 M. Moreover, the Ki in assay [2] (average of the replicates, probe 15 nM, Kd for probe 290 nM, read-out: Ki [nM] Average) is 475 nM; in assay [2] (average of the replicates, probe 15 nM, Kd for probe 290 nM, read-out: Ki [µM] Average), 475 nM; in assay [2] (calculated from IC50, Kd for probe 290 nM, probe 15 nM, replicate 1, read-out: Ki), 592 nM; in assay [2] (calculated from IC50, Kd for probe 290 nM, probe 15 nM, replicate 2, read-out: Ki), 467 nM; in assay [2] (calculated from IC50, Kd for probe 290 nM, probe 15 nM, replicate 3, read-out: Ki), 471 nM; in assay [2] (calculated from IC50, Kd for probe 290 nM, probe 15 nM, replicate 4, read-out: Ki), 347 nM. Moreover, the Ki was 449 nM in assay [2] (calculated from IC50, Kd for probe 290 nM, probe 15 nM, replicate 5, read-out: Ki) and 527 nM in assay [2] (calculated from IC50, Kd for probe 290 nM, probe 15 nM, replicate 6, read-out: Ki).

In assay [3], Ac-SQEFAELWEKNL [D.rer p53 P2 short] had an IC50 of 31800 nM and an inhibitory constant (Ki) of 4330 nM. Moreover, at MDM2D.rerio SWIB domain, the IC50 turned out to be 3.39e-05 M and the Kd stood at 3600 ± 300 nM.

The substance “GSQNDSQEFAELWEKNLISIQPPGGGSCWDIINDEEYLPGSFDPN [D.rer p53 P2 longer]” returned a half-maximal inhibitory concentration (IC50) on MDM2D.rerio SWIB domain of 1.64e-06 M.

“GPMGMADPEPEGLPLSQESFQELWNMVIVLHRAVPPENAQWPDLQSMLYTNELVPNAIDSLYEELEPHVSMPPQPMVSNPDGLAPSSST [L.ocu p53 full, expressed full-length spotted gar p53TAD]”: the Kd in assay [4] (FP displacement of FITC-p53TADhuman^15–26 (15 nM) from MDM2 (1 μM), KD from IC50, 20 mM sodium phosphate pH 7.4, 150 mM NaCl, 1 mM TCEP) amounted to 85 ± 5 nM. In addition, the IC50 in assay [4] (equals the mean of the replicates, read-out: IC50 [nM], mean) came to 2090 nM; in assay [4] (replicate 1, MDM2 1000 nM, labeled probe 15 nM, read-out: IC50 [M] (IT)), 2170 nM; in assay [4] (replicate 2, MDM2 1000 nM, labeled probe 15 nM, read-out: IC50 [M] (IT)), 2140 nM; in assay [4] (replicate 3, MDM2 1000 nM, labeled probe 15 nM, read-out: IC50 [M] (IT)), 1960 nM. Also, the Ki is 84.7 nM in assay [4] (mean of the replicates (n = 3 or 6), read-out: Ki [nM] Average); 84.7 nM in assay [4] (mean of the replicates (n = 3 or 6), read-out: Ki [µM] Average); 90.7 nM in assay [4] (replicate 1, calculated from IC50 with Kd for probe 78 nM, read-out: Ki); 88.6 nM in assay [4] (replicate 2, calculated from IC50 with Kd for probe 78 nM, read-out: Ki); 74.9 nM in assay [4] (replicate 3, calculated from IC50 with Kd for probe 78 nM, read-out: Ki).

For “GPMGMMEEQGFESLPLSQDSFRELWESVVTPSISTIPPAPEVPQDTMYMMLMNDQVLADGFDEKLFELPPESSTKDGVVPPSST [C.arg p53 P1 full, expressed full-length northern snakehead p53TAD paralog 1]”, the half-inhibitory concentration (IC50) in assay [5] (setting [6]) was determined as 1.82e-06 M; in assay [5] (setting [14]), 1.47e-06 M; in assay [5] (setting [7]) it was 1.52e-06 M; in assay [5] (setting [13]), 1.6e-06 M. The same substance registered a Kd in assay [5] (FP displacement of FITC-p53TADhuman^15–26 (15 nM) from MDM2 (1.5 μM), KD from IC50, 20 mM sodium phosphate pH 7.4, 150 mM NaCl, 1 mM TCEP) of 100 ± 30 nM. Besides, the Ki was 98.6 nM in assay [5] (setting [8]); 98.6 nM in assay [5] (setting [9]); 153 nM in assay [5] (setting [10]); 65.5 nM in assay [5] (setting [11]); 77.8 nM in assay [5] (setting [12]).

In the case of “Ac-EFAELWEKNLISIQP (N-terminus assumed) [D.rer p53 17-32 (G1K]”, on D. rerio MDM2 (first replicate), the “N (ITC stoichiometry)” value turned out to be 0.74±0.01, the TΔS worked out at 1.7 kcal/mol and the ΔH was -7.2 ± 0.1 kcal/mol. In addition, at D. rerio MDM2 (second replicate), the “N (ITC stoichiometry)” value worked out at 0.76±0.01, the TΔS is reported as 1.2 kcal/mol and the ΔH was -7.6 ± 0.1 kcal/mol.

On to “GPMGMAQNDSQEFAELWEKNLISIQPPGGGSCWDIINDEEYLPGSFDPNFFGNVLEEQPQPSTLPPTST* [D.rer p53 P2 full, expressed whole TAD region of D. rerio p53]”, for which the Kd on MDM2D.rerio SWIB domain (FP displacement of FITC-p53TADhuman^15–26 (15 nM) from MDM2 (1 μM or 1.5 μM, both printed), KD from IC50, 20 mM sodium phosphate pH 7.4, 150 mM NaCl, 1 mM TCEP, read-out: KD) is 49 ± 8 nM; at MDM2D.rerio SWIB domain (FP displacement, printed in nM (text, Fig. S4A), read-out: KD), 49 nM; on D. rerio MDM2 (MDM2 11 μM in the cell, approximate value), around 100 nM; at D. rerio MDM2 (one of two replicates, the first printed for this construct in Fig. S5 (replicate number not assignable)) it was 100 ± 20 nM; at D. rerio MDM2 (one of two replicates, the second printed for this construct in Fig. S5 (replicate number not assignable)), 100 ± 10 nM. In addition, the “fold higher affinity than p53TAD^15–27D.rerio” value at MDM2D.rerio SWIB domain (ratio of KD values, FP displacement) is listed as “more than 70 fold”. Also, the IC50 at MDM2D.rerio SWIB domain (read-out: IC50 [M] (IT)) is 1.73e-06 M and 1.93e-06 M and 1.69e-06 M; on MDM2D.rerio SWIB domain (read-out: IC50 [nM], mean of the replicates (cell without heading below the column)), 1.78e-06 M. Further, the Ki is 42.6 nM and 65.1 nM and 39.2 nM at MDM2D.rerio SWIB domain (read-out: Ki); 49 nM at MDM2D.rerio SWIB domain (read-out: Ki [nM] Average); 49 nM on MDM2D.rerio SWIB domain (read-out: Ki [µM] Average). Moreover, the “N (ITC stoichiometry)” value on D. rerio MDM2 (first replicate) turned out to be 0.79±0.01; at D. rerio MDM2 (second replicate) it was 0.74±0.01. Besides, the TΔS at D. rerio MDM2 (first replicate) turned out to be 1.7 kcal/mol; at D. rerio MDM2 (second replicate), 2.0 kcal/mol. Besides, the ΔH is -7.8 ± 0.1 kcal/mol on D. rerio MDM2 (first replicate) and -7.6 ± 0.1 kcal/mol on D. rerio MDM2 (second replicate).

In general, Kd refers to a measure of binding affinity in units of concentration. In general, IC50 refers to the concentration that gives 50% inhibition. One may read the Ki as the dissociation constant of the complex between target and ligand, obtained from inhibition or displacement.

Source of the values: publication PMC10901556, “Conservation of Affinity Rather Than Sequence Underlies a Dynamic Evolution of the Motif-Mediated p53/MDM2 Interaction in Ray-Finned Fishes” (Molecular Biology and Evolution, 2024).
